This note sets out measurements from patent publication US8436016B2, “Fused heterocyclic M1 receptor positive allosteric modulators” (priority 2008, dated 2013).

One assay deals with T1, acetylcholine muscarinic M1 receptor (Homo sapiens, UniProt P11229).
T1 construct: expressed in transfected cells; host or cells: CHOnfat (CHO cells with an NFAT reporter background) expressing hM1, kept under Geneticin selection
T1 sequence (P11229 1-460): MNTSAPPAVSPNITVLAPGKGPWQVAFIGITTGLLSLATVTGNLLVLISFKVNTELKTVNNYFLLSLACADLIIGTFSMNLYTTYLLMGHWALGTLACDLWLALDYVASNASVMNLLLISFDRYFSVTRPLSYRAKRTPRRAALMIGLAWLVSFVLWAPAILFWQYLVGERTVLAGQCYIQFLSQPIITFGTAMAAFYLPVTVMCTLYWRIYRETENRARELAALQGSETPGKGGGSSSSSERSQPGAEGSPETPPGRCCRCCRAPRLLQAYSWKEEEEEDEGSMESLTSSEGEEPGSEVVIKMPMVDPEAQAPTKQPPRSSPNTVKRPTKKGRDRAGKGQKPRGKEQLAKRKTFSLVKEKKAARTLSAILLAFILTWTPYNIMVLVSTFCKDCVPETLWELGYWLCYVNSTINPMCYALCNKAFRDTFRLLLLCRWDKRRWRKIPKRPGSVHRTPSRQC
Put plainly: muscarinic FLIPR assay: potentiation of acetylcholine (EC20)-stimulated intracellular Ca2+ in CHOnfat/hM1 cells. It is filed as cell-based.
Conditions: not given
The protocol: The assay studies the effect of one or several concentrations of test compounds on basal or acetylcholine-stimulated Ca^2+ levels using FLIPR.
Compounds are prepared and subjected to a preincubation period of 4 min. Thereafter, a single EC20 concentration of acetylcholine is added to each well (3 nM final). The intracellular Ca^2+ level of each sample is measured and compared to an acetylcholine control to determine any modulatory activity.
Cells: CHOnfat/hM1, hM2, hM3 or hM4 cells are plated 24 hr before the assay at a density of 18,000 cells/well (100 μL) in a 384 well plate. CHOnfat/hM1 and CHOnfat/hM3 Growth Medium: 90% DMEM (Hi Glucose); 10% HI FBS; 2 mM L-glutamine; 0.1 mM NEAA; Pen-Strep; and 1 mg/ml Geneticin, are added. For M2Gqi5CHOnfat and M4Gqi5CHOnfat cells, an additional 600 μg/ml hygromycin is added.
Buffers. […] Dye Loading Buffer: Assay Buffer plus 1% Fetal Bovine Serum and Fluo-4AM/Pluronic Acid Mixture. […] 20% Pluronic Acid Solution stock, with a concentration of 0.04% in Buffer, 0.02% in Assay.
65 μL of 2 mM Fluo-4AM are mixed with 130 μL of 20% Pluronic Acid. The resulting solution and 650 μL FBS is added to the assay buffer for a total volume of 65 mL. Positive Controls: 4-Br-A23187: 10 mM in DMSO; final concentration 10 μM. Acetylcholine: 10 mM in water, working stock at both 20 μM and 30 μM in assay buffer, final concentration of 10 μM. This is used to check the maximum stimulation of the CHOK1/hM1 cells. 20 μM (2×) acetylcholine is added in the preincubation part of the assay, and the 30 μM (3×) stock is added in the second part. (EC20)Acetylcholine: 10 mM in water, working stock of 9 nM (3×), and final concentration in assay is 3 nM. This is used after the preincubation with test compounds. Addition of the EC20 Acetylcholine to each well with a test compound will ascertain any modulator activity. 24 wells contain 3 nM Acetylcholine alone as a control.
Determining Activity of Putative Compounds:
Four 96-well plates are combined into a 384-well plate using Mosquito Nanolitre Pipetting System by transferring 1 μl of serial diluted compounds to each well, and 1 mM acetylcholine (100× stock concentration) were added as a control. Using Term, 49 μl assay buffer is added to each well of the 384-well plate right before assay.
In a 96-well Whatman 2 ml Uniplate, 9 nM Acetylcholine (3×) is pipetted into wells corresponding to the screening compounds and into control wells. The 30 μM acetylcholine control (3×) is added into control wells and the 3× agonist plate is transferred into a 384-well plate.
Cells are washed three times with 100 μL of buffer, leaving 30 μL of buffer in each well. Using Multimek, 30 μL of Dye Loading Buffer is added into each well and incubated at 37° C., 5% CO2 for up to one hr.
After 60 min, the cells are washed three times with 100 μL of buffer, leaving 30 μL of buffer in each well. The cell plate, screening plate, and agonist addition plates are placed on the platform in the FLIPR and the door is closed. A signal test to check background fluorescence and basal fluorescence signal is performed. Laser intensity is adjusted if necessary.
4 min of preincubation with the test compounds is provided to determine any agonist activity on the M1 receptor by comparison to the 1 mM acetylcholine control. After preincubation, the EC20 value of acetylcholine (3 nM final) is added to determine any modulator activity.
The inflection point is calculated from the FLIPR values, and is a measure of activity.
As for `O=C(O)c1cn(Cc2cc3ccccc3[nH]2)c2cccc(F)c2c1=O` [Example 58], the EC50 worked out at 656 nM.
The same measure, in the same setting: the same measure for `Cn1ncc2cc(Cn3cc(C(=O)O)c(=O)c4c(F)cccc43)ccc21` [Example 1, 5-Fluoro-1-[(1-methyl-1H-indazol-5-yl)methyl]-4-oxo-1,4-dihydroquinoline-3-carboxylic acid]: 72 nM.
The same measure, in the same setting: the same measure for `O=C(O)c1cn(Cc2ccc3ccccc3c2)c2c(F)cccc2c1=O` [Example 4]: 80 nM.
On the same count and under the same terms, the same measure for `O=C1Cc2cc(Cn3cc(C(=O)O)c(=O)c4c(F)cccc43)ccc2N1` [Example 53]: 38 nM; for `O=C(O)c1cn(Cc2ccc3[nH]ccc3c2)c2cccc(F)c2c1=O` [Example 33]: 93 nM; for `O=C(O)c1cn(Cc2ccc3c(c2)OCCO3)c2cccc(F)c2c1=O` [Example 27]: 29 nM.

The same assay, now with this note: CHOnfat/hM1 cells, FLIPR, 4 min preincubation, then EC20 acetylcholine (3 nM final); read-out: IP Value (inflection point).
As to `O=C(O)c1cn(Cc2cccc3ccncc23)c2cccc(F)c2c1=O` [Example 73], the EC50 came to 1300 nM.
On the same count and under the same terms, the same measure for `O=C(O)c1cn(Cc2ccc3nccnc3c2)c2cccc(F)c2c1=O` [Example 15]: 501 nM.
Still for that read-out and setting: the same measure for `O=C(O)c1cn(Cc2ccc3cc(F)ccc3c2)c2cccc(F)c2c1=O` [Example 3, 5-Fluoro-1-[(6-fluoro-2-naphthyl)methyl]-4-oxo-1,4-dihydroquinoline-3-carboxylic acid]: 261 nM; for `O=C(O)c1cn(Cc2ccc3[nH]cnc3c2)c2cccc(F)c2c1=O` [Example 42]: 229 nM.
Still for that read-out and setting: the same measure for `O=C(O)c1cn(Cc2cc3ccccc3s2)c2cccc(F)c2c1=O` [Example 56]: 147 nM.
